Reference: ChEMBL document CHEMBL1201862, “PubChem BioAssay data set” (2004)
Activity calls are given as the source filed them.

Experiments:
[1] = molecular target: Delta-type opioid receptor (Homo sapiens, UniProt P41143); experiment: Counterscreen for agonists of heterodimerization of the mu 1 (OPRM1) and delta 1 (OPRD1) opioid receptors: Luminescence-based cell-based high throughput dose response assay to identify agonists of OPRD1 homodimerization. [Related pubchem assays (depositor defined):AID504326, AID504355, AID504692, AID504904, AID504905]; type: functional
Chain of Delta-type opioid receptor (P41143 whole entry): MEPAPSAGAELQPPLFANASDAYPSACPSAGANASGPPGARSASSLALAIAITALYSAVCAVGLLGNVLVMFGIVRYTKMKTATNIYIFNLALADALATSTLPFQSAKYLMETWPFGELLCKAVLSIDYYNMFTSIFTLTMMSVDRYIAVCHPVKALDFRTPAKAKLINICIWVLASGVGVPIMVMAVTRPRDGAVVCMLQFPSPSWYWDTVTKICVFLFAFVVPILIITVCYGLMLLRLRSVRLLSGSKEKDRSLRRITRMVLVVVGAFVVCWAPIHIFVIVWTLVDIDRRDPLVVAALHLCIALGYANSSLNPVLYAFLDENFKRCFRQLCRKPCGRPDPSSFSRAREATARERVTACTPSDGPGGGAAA

[2] = molecular target: Mu-type opioid receptor (Homo sapiens, UniProt P35372); experiment: Counterscreen for agonists of heterodimerization of the mu 1 (OPRM1) and delta 1 (OPRD1) opioid receptors: Luminescence-based cell-based high throughput dose response assay to identify agonists of OPRM1 homodimerization.; type: functional;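 further: U2OS cells expressing OPRM1 and beta-arrestin as split beta-galactosidase partners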
Chain of Mu-type opioid receptor (P35372 whole entry): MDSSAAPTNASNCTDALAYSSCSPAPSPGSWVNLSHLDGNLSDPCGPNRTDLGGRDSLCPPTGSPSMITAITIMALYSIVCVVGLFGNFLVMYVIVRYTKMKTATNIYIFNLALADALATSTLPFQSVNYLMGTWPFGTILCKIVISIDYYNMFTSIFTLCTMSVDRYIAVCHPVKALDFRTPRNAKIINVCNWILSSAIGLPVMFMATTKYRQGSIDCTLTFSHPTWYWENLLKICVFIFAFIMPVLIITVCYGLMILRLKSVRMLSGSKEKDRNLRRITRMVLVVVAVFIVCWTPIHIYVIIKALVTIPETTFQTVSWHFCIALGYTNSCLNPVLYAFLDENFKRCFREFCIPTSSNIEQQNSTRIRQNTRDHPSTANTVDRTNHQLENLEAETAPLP

[3] = molecular target: T1, Short transient receptor potential channel 4 (Mus musculus, UniProt Q9QUQ5); experiment: calcium entry via TRPC4 opening agents – cell-based, HEK293 TRPC4/mu-opioid, Fluo-4 calcium, dose response (AID 434937); type: functional
T1 sequence (Q9QUQ5 whole entry): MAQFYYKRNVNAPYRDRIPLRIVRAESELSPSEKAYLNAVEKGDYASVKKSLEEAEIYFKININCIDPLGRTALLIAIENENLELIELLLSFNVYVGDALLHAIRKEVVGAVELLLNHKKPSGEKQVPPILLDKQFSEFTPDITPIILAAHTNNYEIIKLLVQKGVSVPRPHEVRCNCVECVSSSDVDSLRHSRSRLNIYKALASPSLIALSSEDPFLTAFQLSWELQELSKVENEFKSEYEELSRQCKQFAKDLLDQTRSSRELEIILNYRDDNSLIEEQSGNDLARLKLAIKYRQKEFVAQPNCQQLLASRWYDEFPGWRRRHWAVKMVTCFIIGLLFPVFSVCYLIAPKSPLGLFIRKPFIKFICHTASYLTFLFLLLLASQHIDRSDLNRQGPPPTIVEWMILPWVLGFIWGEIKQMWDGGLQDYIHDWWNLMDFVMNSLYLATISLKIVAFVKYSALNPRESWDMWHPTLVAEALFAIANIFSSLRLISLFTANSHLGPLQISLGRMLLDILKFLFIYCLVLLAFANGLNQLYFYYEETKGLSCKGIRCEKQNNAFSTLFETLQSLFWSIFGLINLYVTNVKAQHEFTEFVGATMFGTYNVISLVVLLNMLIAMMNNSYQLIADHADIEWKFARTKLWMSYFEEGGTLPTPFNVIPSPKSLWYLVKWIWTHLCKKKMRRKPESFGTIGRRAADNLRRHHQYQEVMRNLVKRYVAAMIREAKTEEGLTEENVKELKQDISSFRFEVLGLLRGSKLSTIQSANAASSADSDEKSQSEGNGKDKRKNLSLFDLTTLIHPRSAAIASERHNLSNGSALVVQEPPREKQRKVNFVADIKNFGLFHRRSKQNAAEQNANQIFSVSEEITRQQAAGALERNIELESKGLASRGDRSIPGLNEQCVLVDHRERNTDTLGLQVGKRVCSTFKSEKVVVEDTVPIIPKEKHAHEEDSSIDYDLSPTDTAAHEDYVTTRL

[4] = molecular target: 5-hydroxytryptamine receptor 5A (Homo sapiens, UniProt P47898); experiment: Counterscreen for agonists of OPRM1-OPRD1 heterodimerization: luminescence-based cell-based high throughput dose response assay to identify agonists of 5-hydroxytryptamine (serotonin) 5A receptor (HTR5A). [Related pubchem assays (depositor defined):AID504326, AID504355, AID504692, AID504904, AID504905]; type: functional
Chain of 5-hydroxytryptamine receptor 5A (P47898 whole entry): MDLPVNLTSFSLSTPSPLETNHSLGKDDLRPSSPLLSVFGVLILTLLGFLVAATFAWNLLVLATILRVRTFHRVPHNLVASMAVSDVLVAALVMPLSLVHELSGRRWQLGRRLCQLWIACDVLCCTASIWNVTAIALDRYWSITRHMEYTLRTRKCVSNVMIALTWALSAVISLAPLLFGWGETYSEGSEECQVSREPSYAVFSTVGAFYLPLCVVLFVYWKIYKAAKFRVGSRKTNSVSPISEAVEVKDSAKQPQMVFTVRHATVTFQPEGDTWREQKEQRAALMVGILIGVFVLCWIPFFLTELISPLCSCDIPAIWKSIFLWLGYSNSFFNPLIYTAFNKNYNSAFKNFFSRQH

[5] = molecular target: T2, Voltage-gated N-type calcium channel alpha-1B subunit/Amyloid beta A4 precursor protein-binding family A member 1 (Homo sapiens, UniProt Q00975+Q02410); type: protein assay
T2 sequence (Q00975 whole entry): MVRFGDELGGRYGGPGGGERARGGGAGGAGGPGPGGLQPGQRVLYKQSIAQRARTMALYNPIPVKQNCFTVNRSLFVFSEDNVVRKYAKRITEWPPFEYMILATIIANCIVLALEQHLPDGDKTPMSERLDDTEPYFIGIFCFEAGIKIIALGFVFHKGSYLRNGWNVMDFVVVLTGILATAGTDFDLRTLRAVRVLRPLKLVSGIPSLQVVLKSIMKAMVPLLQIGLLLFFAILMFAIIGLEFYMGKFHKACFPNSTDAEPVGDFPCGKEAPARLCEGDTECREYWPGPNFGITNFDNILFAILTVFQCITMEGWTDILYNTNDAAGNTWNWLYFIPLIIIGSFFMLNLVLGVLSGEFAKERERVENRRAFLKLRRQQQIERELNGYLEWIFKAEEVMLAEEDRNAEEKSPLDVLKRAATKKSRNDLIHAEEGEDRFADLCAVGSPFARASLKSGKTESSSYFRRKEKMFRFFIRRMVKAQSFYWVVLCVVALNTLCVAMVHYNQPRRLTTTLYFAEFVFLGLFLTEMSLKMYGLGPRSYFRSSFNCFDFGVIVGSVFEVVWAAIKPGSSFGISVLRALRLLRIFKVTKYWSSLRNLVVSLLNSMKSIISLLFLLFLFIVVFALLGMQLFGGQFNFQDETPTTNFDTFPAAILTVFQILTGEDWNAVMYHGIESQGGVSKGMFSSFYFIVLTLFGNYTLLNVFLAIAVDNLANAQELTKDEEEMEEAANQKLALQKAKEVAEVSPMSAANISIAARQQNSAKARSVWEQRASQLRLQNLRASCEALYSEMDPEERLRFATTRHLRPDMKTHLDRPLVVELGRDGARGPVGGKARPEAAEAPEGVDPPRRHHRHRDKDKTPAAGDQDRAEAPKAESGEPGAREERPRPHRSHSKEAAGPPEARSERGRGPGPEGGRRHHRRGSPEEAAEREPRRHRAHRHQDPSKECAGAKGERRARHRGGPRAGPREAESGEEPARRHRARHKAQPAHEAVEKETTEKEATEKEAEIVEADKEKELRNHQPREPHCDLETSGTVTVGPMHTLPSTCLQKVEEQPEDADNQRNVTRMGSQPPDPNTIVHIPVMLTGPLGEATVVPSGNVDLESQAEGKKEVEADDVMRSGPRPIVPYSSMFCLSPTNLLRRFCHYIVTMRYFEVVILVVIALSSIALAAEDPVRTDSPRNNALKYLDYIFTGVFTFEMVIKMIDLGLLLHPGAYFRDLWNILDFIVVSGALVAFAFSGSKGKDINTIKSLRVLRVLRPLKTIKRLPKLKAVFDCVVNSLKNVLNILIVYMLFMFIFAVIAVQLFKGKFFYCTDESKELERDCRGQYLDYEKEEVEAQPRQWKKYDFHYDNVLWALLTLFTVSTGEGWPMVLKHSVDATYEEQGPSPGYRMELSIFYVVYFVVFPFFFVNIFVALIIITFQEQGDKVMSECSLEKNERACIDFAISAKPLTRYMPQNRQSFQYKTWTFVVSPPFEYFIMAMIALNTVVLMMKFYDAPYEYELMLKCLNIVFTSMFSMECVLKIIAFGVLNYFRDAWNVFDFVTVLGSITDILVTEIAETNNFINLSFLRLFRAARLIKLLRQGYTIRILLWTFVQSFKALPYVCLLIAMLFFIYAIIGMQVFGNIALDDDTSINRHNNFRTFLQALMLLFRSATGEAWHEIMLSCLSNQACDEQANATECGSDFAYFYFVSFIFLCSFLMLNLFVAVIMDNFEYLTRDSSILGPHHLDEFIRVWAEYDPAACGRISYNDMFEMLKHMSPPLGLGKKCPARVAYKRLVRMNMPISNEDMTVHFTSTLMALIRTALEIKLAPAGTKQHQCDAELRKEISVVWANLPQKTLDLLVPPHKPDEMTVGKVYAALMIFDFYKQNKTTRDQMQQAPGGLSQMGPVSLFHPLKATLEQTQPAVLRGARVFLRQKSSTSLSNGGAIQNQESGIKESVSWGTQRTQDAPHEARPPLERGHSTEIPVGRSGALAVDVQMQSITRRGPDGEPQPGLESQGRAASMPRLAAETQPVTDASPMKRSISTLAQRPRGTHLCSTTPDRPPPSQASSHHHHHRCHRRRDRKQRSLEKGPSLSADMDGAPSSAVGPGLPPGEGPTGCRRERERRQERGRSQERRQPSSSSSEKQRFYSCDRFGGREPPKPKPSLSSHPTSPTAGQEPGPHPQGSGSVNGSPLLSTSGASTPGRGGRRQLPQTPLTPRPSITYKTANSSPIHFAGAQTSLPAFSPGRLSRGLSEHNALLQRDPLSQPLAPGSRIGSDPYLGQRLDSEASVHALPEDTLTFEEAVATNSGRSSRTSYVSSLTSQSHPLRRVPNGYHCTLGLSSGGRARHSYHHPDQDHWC
T2 sequence (Q02410 whole entry): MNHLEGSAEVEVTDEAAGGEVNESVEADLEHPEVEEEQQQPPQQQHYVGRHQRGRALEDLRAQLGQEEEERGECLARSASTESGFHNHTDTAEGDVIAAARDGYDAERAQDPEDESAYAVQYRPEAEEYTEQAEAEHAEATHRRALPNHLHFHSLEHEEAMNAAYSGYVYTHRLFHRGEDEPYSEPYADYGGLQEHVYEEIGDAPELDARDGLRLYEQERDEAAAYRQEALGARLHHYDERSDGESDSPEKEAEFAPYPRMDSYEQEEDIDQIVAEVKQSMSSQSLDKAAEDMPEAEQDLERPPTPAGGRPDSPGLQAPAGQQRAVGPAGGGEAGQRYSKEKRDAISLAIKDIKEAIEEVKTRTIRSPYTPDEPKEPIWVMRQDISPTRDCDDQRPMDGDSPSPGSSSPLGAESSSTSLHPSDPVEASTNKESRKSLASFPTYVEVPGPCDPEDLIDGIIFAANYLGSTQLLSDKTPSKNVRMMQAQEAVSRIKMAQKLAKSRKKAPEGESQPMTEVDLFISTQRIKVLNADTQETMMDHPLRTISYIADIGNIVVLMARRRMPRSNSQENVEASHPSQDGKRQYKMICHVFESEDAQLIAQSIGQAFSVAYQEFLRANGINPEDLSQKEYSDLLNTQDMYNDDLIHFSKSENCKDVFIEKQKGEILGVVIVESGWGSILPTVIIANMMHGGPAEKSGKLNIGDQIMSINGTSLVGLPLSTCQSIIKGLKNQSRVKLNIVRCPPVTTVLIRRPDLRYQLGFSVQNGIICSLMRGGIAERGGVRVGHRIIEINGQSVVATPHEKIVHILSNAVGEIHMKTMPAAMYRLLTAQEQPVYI

[6] = molecular target: T2, Voltage-gated N-type calcium channel alpha-1B subunit/Amyloid beta A4 precursor protein-binding family A member 1; type: protein assay; remark: listed apart in the source
[7] = molecular target: DNA dC->dU-editing enzyme APOBEC-3A (Homo sapiens, UniProt P31941); experiment: Dose Response confirmation of small molecule APOBEC3A DNA Deaminase Inhibitors via a fluorescence-based single-stranded DNA deaminase assay. [Related pubchem assays (depositor defined):AID493011, AID493024]; type: functional
Chain of DNA dC->dU-editing enzyme APOBEC-3A (P31941 whole entry): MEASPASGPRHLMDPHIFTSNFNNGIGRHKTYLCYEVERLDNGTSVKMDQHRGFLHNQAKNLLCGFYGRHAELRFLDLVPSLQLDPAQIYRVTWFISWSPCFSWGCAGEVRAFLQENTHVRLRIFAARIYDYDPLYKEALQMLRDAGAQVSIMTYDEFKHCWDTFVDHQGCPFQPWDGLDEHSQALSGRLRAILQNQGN

[8] = molecular target: DNA dC->dU-editing enzyme APOBEC-3G (Homo sapiens, UniProt Q9HC16); type: functional;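 further: Dose-response counterscreen measuring inhibition of APOBEC3G DNA deaminase activity, run while confirming APOBEC3A inhibitors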
[9] = molecular target: Eukaryotic translation initiation factor 4E (Mus musculus, UniProt P63073); experiment: blockers of eIF4G binding by eIF4E – biochemical, TR-FRET, dose response (AID 855); type: functional;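 further: potency for disrupting eIF4E binding to eIF4GI seen as loss of FRET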
[10] = molecular target: Nucleotide-binding oligomerization domain-containing protein 2 (Homo sapiens, UniProt Q9HC29); experiment: inhibition of NOD2-driven NF-kB reporter – cell-based, luminescence, uHTS, HEK293 (AID 1566); type: functional
[11] = molecular target: Cytochrome P450 3A4 (Homo sapiens, UniProt P08684); settings: Potency;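 further: confirmatory qHTS run detecting inhibitors and substrates of CYP3A4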
Chain of Cytochrome P450 3A4 (P08684 whole entry): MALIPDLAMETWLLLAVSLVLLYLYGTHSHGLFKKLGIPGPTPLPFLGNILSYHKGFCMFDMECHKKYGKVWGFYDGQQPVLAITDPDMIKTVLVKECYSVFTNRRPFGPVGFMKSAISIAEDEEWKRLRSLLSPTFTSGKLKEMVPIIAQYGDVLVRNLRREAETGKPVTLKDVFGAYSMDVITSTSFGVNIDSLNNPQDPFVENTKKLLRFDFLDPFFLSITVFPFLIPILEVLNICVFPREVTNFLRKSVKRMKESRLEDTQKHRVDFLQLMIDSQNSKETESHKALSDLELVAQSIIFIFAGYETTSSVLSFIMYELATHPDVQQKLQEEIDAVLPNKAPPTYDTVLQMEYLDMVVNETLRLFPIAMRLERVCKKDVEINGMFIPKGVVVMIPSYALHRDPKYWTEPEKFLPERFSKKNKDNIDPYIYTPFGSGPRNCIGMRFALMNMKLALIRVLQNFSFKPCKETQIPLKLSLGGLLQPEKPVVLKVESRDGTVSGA

[12] = molecular target: T3, DNA repair and recombination protein RAD54-like (Homo sapiens, UniProt Q92698); experiment: RAD54 Holliday junction migration blockers – biochemical, fluorescence, cherry-picked samples, dose series, confirmation (AID 651657); type: functional
T3 sequence (Q92698 whole entry): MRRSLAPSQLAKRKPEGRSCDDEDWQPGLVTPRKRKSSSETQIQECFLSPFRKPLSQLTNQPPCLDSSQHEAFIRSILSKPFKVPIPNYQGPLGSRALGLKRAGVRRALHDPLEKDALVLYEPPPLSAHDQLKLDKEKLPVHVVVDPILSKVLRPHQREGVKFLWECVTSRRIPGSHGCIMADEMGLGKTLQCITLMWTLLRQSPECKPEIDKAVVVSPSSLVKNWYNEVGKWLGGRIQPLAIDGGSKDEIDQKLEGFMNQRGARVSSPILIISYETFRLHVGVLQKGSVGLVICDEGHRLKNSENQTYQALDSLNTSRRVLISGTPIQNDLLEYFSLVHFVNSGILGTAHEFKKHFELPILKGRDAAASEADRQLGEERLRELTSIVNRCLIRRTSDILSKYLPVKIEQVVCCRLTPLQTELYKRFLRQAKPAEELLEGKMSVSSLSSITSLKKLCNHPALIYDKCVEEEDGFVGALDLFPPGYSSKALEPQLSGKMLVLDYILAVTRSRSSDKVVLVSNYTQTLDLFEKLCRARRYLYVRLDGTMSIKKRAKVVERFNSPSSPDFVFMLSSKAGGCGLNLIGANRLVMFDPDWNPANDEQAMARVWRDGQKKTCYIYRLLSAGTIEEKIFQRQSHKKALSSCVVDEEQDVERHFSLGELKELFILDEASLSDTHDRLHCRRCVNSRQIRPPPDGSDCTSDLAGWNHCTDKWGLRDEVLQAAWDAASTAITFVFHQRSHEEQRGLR

[13] = tested on: HEK293; experiment: NOD2 signaling inhibitors in MDP-stimulated cells, cell-based, uHTS, luminescence (AID 2001); type: functional; settings: Homo sapiens
[14] = tested on: HEK293; experiment: cells; type: functional, cell-based; settings: Homo sapiens
[15] = tested on: HEK293; experiment: cells; type: functional, cell-based; settings: Homo sapiens; remark: listed apart in the source
[16] = tested on: HEK293; experiment: cells; type: functional, cell-based; settings: Homo sapiens; remark: listed apart in the source
[17] = tested on: INS1; experiment: INS-1E survival protection against cytokine death – cell-based, luminescence, retest, dose response (AID 449756); type: functional; settings: Rattus norvegicus;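 further: cell death triggered by IL-1 beta plus TNF-alpha plus IFN-gamma mixture; protective hits raise ATP signal compared with cytokine alone wells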
[18] = tested on: HEK293; experiment: inhibition of NOD1-driven NF-kB reporter – cell-based, luminescence, uHTS, primary screen (AID 1578); type: functional; settings: Homo sapiens
[19] = Trypanosoma cruzi growth suppression in host cells – NIH3T3 host cells, beta-gal luminescence, confirmation (AID 2044); type: functional, cell-based;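 further: intracellular parasites grown in NIH/3T3 mouse fibroblasts as host cells; luminescent beta-galactosidase reporter signal from transgenic T. cruzi replicating inside host cells; inhibitors lower the luminescence signal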
[20] = NIH3T3 cell viability loss – ATP luminescence, mouse fibroblasts, counter-screen, dose response (AID 2010); type: functional, cell-based;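 further: cells exposed to compound for about 90 hours before reading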
[21] = molecular target: T4, Heat shock factor protein 1 (Mus musculus, UniProt P38532); experiment: enhancement of HSF1-driven luciferase signal – cell-based, NIH3T3, luminescence, dose retest, confirmation (AID 435004); type: functional;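 further: stress induced by proteasome inhibitor MG132 added 30 min after compound; luciferase reporter driven by HSF1 response element in NIH3T3 cells; actives raise luminescence as potentiators of the MG132 stress response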
T4 sequence (P38532 whole entry): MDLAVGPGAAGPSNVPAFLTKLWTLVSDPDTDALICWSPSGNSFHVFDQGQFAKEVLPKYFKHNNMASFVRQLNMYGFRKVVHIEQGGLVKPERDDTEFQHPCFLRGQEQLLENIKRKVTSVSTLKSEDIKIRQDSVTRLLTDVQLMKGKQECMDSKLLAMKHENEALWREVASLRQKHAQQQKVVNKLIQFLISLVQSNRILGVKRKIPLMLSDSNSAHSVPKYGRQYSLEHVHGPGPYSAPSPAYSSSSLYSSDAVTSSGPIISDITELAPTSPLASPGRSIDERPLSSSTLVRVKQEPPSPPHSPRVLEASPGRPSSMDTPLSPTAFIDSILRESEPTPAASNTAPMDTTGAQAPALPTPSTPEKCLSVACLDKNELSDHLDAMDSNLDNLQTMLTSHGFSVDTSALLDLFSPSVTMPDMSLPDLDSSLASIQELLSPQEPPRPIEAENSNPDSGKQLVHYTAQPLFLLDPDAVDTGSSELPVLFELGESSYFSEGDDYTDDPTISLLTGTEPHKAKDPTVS

[22] = molecular target: Nonstructural protein 1 (Influenza A virus, UniProt Q194T2); type: functional, Influenza A virus (A/California/07/2009(H1N1))
[23] = molecular target: T5, Sentrin-specific protease 8 (Homo sapiens, UniProt Q96LD8); type: functional
T5 sequence (Q96LD8 whole entry): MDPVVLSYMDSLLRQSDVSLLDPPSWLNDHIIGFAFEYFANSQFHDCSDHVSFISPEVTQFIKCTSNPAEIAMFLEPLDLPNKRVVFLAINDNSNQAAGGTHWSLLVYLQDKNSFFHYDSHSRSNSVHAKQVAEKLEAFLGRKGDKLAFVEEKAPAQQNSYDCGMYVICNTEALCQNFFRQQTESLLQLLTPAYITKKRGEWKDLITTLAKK

[24] = molecular target: T5, Sentrin-specific protease 8; type: functional; remark: listed apart in the source

## CCC1(C)CC(CCNCc2ccc(N(C)C)cc2)(c2ccc(F)cc2)CCO1 (stereo not drawn)
[1]
  EC50: > 92.3 µM (inactive)
[2]
  EC50: 29.2 µM (inactive)
[3]
  EC50: 5.96 µM (active)
[4]
  EC50: > 92.3 µM (inactive)

## O=C(CSc1ccc(Cl)cc1)Nc1ccc(-c2nc3ccccc3[nH]2)cc1
[1]
  EC50: > 92.5 µM (inactive)
[2]
  EC50: > 92.5 µM (inactive)
[4]
  EC50: > 92.5 µM (inactive)

## CC(C)c1ccc(/C=C2\SC(=O)N(CC(=O)NC3CCS(=O)(=O)C3)C2=O)cc1 (stereo not drawn)
[5]
  IC50: 12.4 µM (active)
[6]
  IC50: > 50 µM (inactive)

## Cc1ccccc1/C=C/c1cc[n+](C)cc1
[7]
  IC50: 2.33 µM (active)
[8]
  IC50: 3.38 µM (active)

## O=C(O)c1cc(-c2ccco2)nn1-c1ccc(Cl)cc1
[9]
  IC50: 50 µM (inactive)
[5]
  IC50: 5.13 µM (active)
[6]
  IC50: 22.1 µM (active)

## FC(F)(F)c1cnc(NNC(=S)Nc2ccccc2Cl)c(Cl)c1
[10]
  EC50: 11 µM (active)

## Cc1ccc(N)cc1Cl
[11]
  AC50: 12.6 µM (inconclusive)

## Cc1c(CN(C)C)c2c(n1C)C(=O)c1ccc(Br)cc1-2
[12]
  AC50: 11.8 µM (active)

## CCCn1c(C)nc2c(NCCCCN(CC)CC)nc(C)nc21
[11]
  AC50: 20 µM (inconclusive)

## FC(F)(F)c1cnc(NN=C(S)Nc2ccccc2Cl)c(Cl)c1
[13]
  IC50: 6.98 µM (inactive)
[14]
  IC50: > 20 µM (inactive)
[15]
  IC50: 15.1 µM (active)
[16]
  IC50: 6.49 µM (active)
[17]
  AC50: 7.04 µM (active)
[18]
  EC50: 6.06 µM (active)

## OCC1(CCc2ccccc2)CCN(Cc2ccccc2Cl)CC1
[1]
  EC50: > 92.4 µM (inactive)
[2]
  EC50: 67.6 µM (inactive)
[4]
  EC50: > 92.4 µM (inactive)

## CCOC(=O)C1(CCOc2ccccc2)CCN(Cc2cccn2-c2cccnc2)CC1
[1]
  EC50: > 92.5 µM (inactive)
[2]
  EC50: 17.5 µM (inactive)
[19]
  EC50: 2.94 µM (active)
[20]
  EC50: > 30 µM (not active)
[4]
  EC50: > 92.5 µM (inactive)

## Cc1ccc(C)c(NC(=O)C2CC(O)CN2C(=O)Oc2ccccc2)c1 (stereo not drawn)
[7]
  IC50: 10 µM (active)
[8]
  IC50: 10.4 µM (active)
[21]
  EC50: > 260 µM (inactive)

## Cc1n[nH]c(O)c1C(c1c(C)n[nH]c1O)c1cn(Cc2ccc(F)cc2)c2ccccc12
[22]
  IC50: 47.2 µM (active)
[23]
  IC50: 5.81 µM (active)
[24]
  IC50: 6.07 µM (active)

## Cc1cc(C)nc(NC(=S)Nc2ccc(Br)cc2Cl)c1
[5]
  IC50: 5.57 µM (active)
[6]
  IC50: > 50 µM (inactive)

## C[C@H]1C[C@]2(O[C@@H]2C)C(=O)O[C@@H]2CCN(C)C/C=C(/COC(=O)[C@]1(C)O)C2=O
[11]
  AC50: 25.1 µM (inconclusive)

## CCN(CC)c1ccc(S(=O)(=O)N2CCOCC2)cc1NC(=O)CN1CCc2ccccc2C1
[13]
  IC50: 11.5 µM (inactive)
[14]
  IC50: > 20 µM (inactive)
[15]
  IC50: > 20 µM (inactive)
[16]
  IC50: 7.07 µM (active)
[18]
  EC50: 10.5 µM (active)
[10]
  EC50: 11.5 µM (active)

## CCC1=C2CC[C@H]3C(=O)N(CC(=O)OC)C(=O)[C@H]3[C@H]2[C@@]2(C)C(=O)N(CC3CC3)C(=O)N2C1=O
[11]
  AC50: 7.94 µM (inconclusive)
